Experimental findings from patent publication US6518423B1, “Benzopiperidine derivatives” (Eisai Co., Ltd., priority 1996, dated 2003) are described below.

Each structure is given as a SMILES string. Counter-ions that a name gives are not always drawn.

In general, melting point refers to the temperature of the solid-liquid transition.

For one series, the system named is ICAM-1. As to the kind of experiment: Effect on the expression of ICAM-1 in human cultured umbilical cord endothelial cells (TNF-stimulated, ELISA). The format is cell-based. The conditions noted are these: 1 ng/ml TNF, 4 hours, expression with TNF = 100%, without TNF = 0%, read-out: IC50 (50% inhibitory concentration of ICAM-1 expression). As for the experimental part:
Effect on the Expression of ICAM-1 in Human Cultured Umbilical Cord Endothelial Cells
Examination was made on the effect on the expression of ICAM-1 which is one of adhesion molecules expressed on the surfaces of cultured endothelia cells. The endotheliall cells were suspended in an MCDB131 medium containing 10% of fetal calf serum and pipetted into a 96-well culture plate (10,000 cells/well). After culturing at 37° C. in the presence of 5% of carbon dioxide for 2 days, 1 ng/ml of a tumor necrosis factor (TNF) and a test compound were added to the 96-well culture plate. After culturing at 37° C. in the presence of 5% of carbon dioxide for 4 hours and then washing with a phosphate buffer once, 0.05% of glutaraldehyde was added thereto. Six minutes thereafter, the plate was washed twice and 1 μg/ml of a mouse antihuman ICAM-1 antibody was added thereto. After allowing to stand for 1 hour, it was washed twice and a peroxidase-labeled sheep antimouse immunoglobulin antibody was added thereto. After allowing to stand for 1 hour, it was washed twice and a color developing substrate for peroxidase (o-phenylenediamine) was added thereto. After allowing to stand at room temperature for 10 minutes, a 1 N solution of sulfuric acid was added thereto. Then the absorbance at 490 nm was measured with the use of an absorptiometer for 96-well plate. The value thus obtained was employed as an indication of the ICAM-1 expression.
Background: An ELISA detects its analyte on a solid surface through an enzyme-linked reagent.
For `COC1(CC(=O)O)C2CCCC1CN(Cc1ccc3c(c1)Nc1nccnc1S3)C2` (stereo not shown) [Example 105], the IC50 was determined as 5800 nM.

The same series, now with this note: Homo sapiens, Endothelial cell, 4 h, 1 ng/ml TNF, expression with TNF = 100%, without TNF = 0%, read-out: IC50 (50% inhibitory concentration of ICAM-1 expression).
Turning to `O=C(O)CC12CCCC(CN(Cc3ccc4c(c3)Nc3nccnc3S4)C1)C2` (stereo not shown) [Example 104], the IC50 is 2800 nM. Regarding `O=C(O)C12CCCC(CN(Cc3ccc4c(c3)Nc3nccnc3S4)C1)C2` (stereo not shown) [Example 90], the IC50 stood at 2800 nM. With `O=C(O)C=C1CC2CCC(C1)N2Cc1ccc2c(c1)Nc1nccnc1S2` [Example 118], the IC50 was 1600 nM.

Regarding `CNc1ncnc2c1ncn2Cc1ccc2c(c1)Nc1nccnc1S2` [Example 1409], the IC50 stood at 670 nM.

Regarding `COC1(CC(=O)O)C2CCCC1CN(Cc1ccc3c(c1)Nc1nccnc1S3)C2` (stereo not shown) [Example 103], the IC50 came out at 6600 nM. Still for that read-out and setting: under `O=C(O)CC1C2CN(Cc3ccc4c(c3)Nc3nccnc3S4)CC1C21CCC1` (stereo not shown) [Example 85] stands 6400 nM. Same read-out and setting: under `CC(C)(C)C1CC2CN(Cc3ccc4c(c3)Nc3nccnc3S4)CC(C1)C2CC(=O)O` (stereo not shown) [Example 77] stands 2800 nM; under `O=C(O)CC1C2CCCCC1CN(Cc1ccc3c(c1)Nc1nccnc1S3)C2` (stereo not shown) [Example 80], 4100 nM.

As for `O=C(O)C1C2CCCC1CN(Cc1ccc3c(c1)Nc1nccnc1S3)C2` (stereo not shown) [Example 74], the IC50 was 1900 nM. `CC(C(=O)O)C1C2CCCC1CN(Cc1ccc3c(c1)Nc1nccnc1S3)C2` (stereo not shown) [Example 82]: the IC50 worked out at 3400 nM.

As for `CC(CCC1C2CN(Cc3ccc4c(c3)Nc3nccnc3S4)CC1C(C)CC2C)C(=O)O` (stereo not shown) [Example 100], the IC50 was found to be 3800 nM. On to `CC1(C(=O)O)C2CCCC1CN(Cc1ccc3c(c1)Nc1nccnc1S3)C2` (stereo not shown) [Example 113], for which the IC50 was 2500 nM.

As for `O=C(O)CC1C2CC(c3ccccc3)CC1CN(Cc1ccc3c(c1)Nc1nccnc1S3)C2` (stereo not shown) [Example 87], the IC50 came to 2900 nM.

As to `O=C(O)C=C1C2CCC1CN(Cc1ccc3c(c1)Nc1nccnc1S3)C2` [Example 70], the IC50 worked out at 2800 nM.

Tested on in another series: not given
Test: not given
Settings: not given
Consider `O=C(O)CC12CCCC(CN(Cc3ccc4c(c3)Nc3nccnc3S4)C1)C2` (stereo not shown) [Example 104], for which the melting point lay in the range of 215 to 217 °C. With `O=C(O)C12CCCC(CN(Cc3ccc4c(c3)Nc3nccnc3S4)C1)C2` (stereo not shown) [Example 90], the melting point fell in the range of 186 to 188 °C.

`O=C(O)C=C1CC2CCC(C1)N2Cc1ccc2c(c1)Nc1nccnc1S2` [Example 118] had a melting point of 206 to 208 °C. On the same count and under the same terms, the value for `CNc1ncnc2c1ncn2Cc1ccc2c(c1)Nc1nccnc1S2` [Example 1409] was 279 to 281 °C. The same measure, in the same setting: the value for `COC1(CC(=O)O)C2CCCC1CN(Cc1ccc3c(c1)Nc1nccnc1S3)C2` (stereo not shown) [Example 103] was 217 to 219 °C; that for `O=C(O)CC1C2CN(Cc3ccc4c(c3)Nc3nccnc3S4)CC1C21CCC1` (stereo not shown) [Example 85] was 175 to 180 °C; that for `CC(C)(C)C1CC2CN(Cc3ccc4c(c3)Nc3nccnc3S4)CC(C1)C2CC(=O)O` (stereo not shown) [Example 77] was 138 to 140 °C.

For `COC1(CC(=O)O)C2CCCC1CN(Cc1ccc3c(c1)Nc1nccnc1S3)C2` (stereo not shown) [Example 105], the melting point was 225 to 228 °C. In turn, `O=C(O)CC1C2CCCCC1CN(Cc1ccc3c(c1)Nc1nccnc1S3)C2` (stereo not shown) [Example 80] gave a melting point of 217 to 218 °C.

`O=C(O)C1C2CCCC1CN(Cc1ccc3c(c1)Nc1nccnc1S3)C2` (stereo not shown) [Example 74] displayed a melting point of 272 to 275 °C. Same read-out and setting: the value for `CC(CCC1C2CN(Cc3ccc4c(c3)Nc3nccnc3S4)CC1C(C)CC2C)C(=O)O` (stereo not shown) [Example 100] was 110 to 115 °C; that for `CC1(C(=O)O)C2CCCC1CN(Cc1ccc3c(c1)Nc1nccnc1S3)C2` (stereo not shown) [Example 113] was 264 to 265 °C.

Consider `O=C(O)CC1C2CC(c3ccccc3)CC1CN(Cc1ccc3c(c1)Nc1nccnc1S3)C2` (stereo not shown) [Example 87], for which the melting point lay within 128 to 131 °C. As to `O=C(O)C=C1C2CCC1CN(Cc1ccc3c(c1)Nc1nccnc1S3)C2` [Example 70], the melting point was 268 to 271 °C.

On to `CN(C)S(=O)(=O)NC1CCN(Cc2cnc3c(c2)Nc2nccnc2S3)CC1`, for which the melting point fell in the range of 205 to 210 °C. In turn, `O=C(O)/C=C/c1cn(Cc2ccc3c(c2)Nc2nccnc2S3)cn1` gave a melting point of 275 to 276 °C. `CC(=O)NC1CCN(Cc2ccc3c(c2)Nc2nccnc2S3)CC1` came in with a melting point of 212 to 214 °C. Still for that read-out and setting: the value for `O=c1ccn(Cc2ccc3c(c2)Nc2ccncc2S3)cc1` was 168 °C (dec.). Same read-out and setting: under `CS(=O)(=O)NCC1CCN(Cc2ccc3c(c2)Nc2nccnc2S3)CC1` stands 218 to 221 °C. On the same count and under the same terms, the value for `CC(CCC1CCN(Cc2ccc3c(c2)Nc2ncncc2S3)CC1)C(=O)O` (stereo not shown) was 219 to 220 °C; that for `CN1c2ccc(C#Cc3ccccc3)cc2Nc2nccnc21` was 245 to 247 °C; that for `N#CN=C(Cc1ccc2c(c1)Nc1nccnc1S2)NCCS(=O)(=O)[O-].[Na+]` was 213 to 215 °C. For the molecule `Cl.N=C(N)c1ccnc2c1Sc1ccccc1N2`, the melting point is > 280 °C. `CN1c2ccc(C=O)cc2Nc2nccnc21` registered a melting point of 215 to 219 °C.

The molecule `O=C(O)C1CCN(CCCc2ccc3c(c2)Nc2nccnc2S3)CC1` returned a melting point of 262 to 264 °C. With `NC(Cc1ccc2c(c1)Nc1nccnc1S2)=NO`, the melting point lay within 252 to 254 °C. The same measure, in the same setting: the value for `OC1C2CCCC1CN(Cc1ccc3c(c1)Nc1nccnc1S3)C2` (stereo not shown) [Example 127] was 189 to 192 °C; that for `CCc1ccc(NCc2ccc3c(c2)Nc2nccnc2S3)cn1` was 202 to 204 °C; that for `Cc1ncn(Cc2ccc3c(c2)Nc2nccnc2S3)c1C(=O)O` was 235 °C (dec.). Turning to `FC(c1cccnc1)c1ccc2c(c1)Nc1nccnc1S2` (stereo not shown), the melting point fell in the range of 157 to 159 °C. The same measure, in the same setting: the value for `NC(=O)NCCN1c2ccccc2Nc2nccnc21` was 231 to 233 °C; that for `N#Cc1ncnc2c1ncn2Cc1ccc2c(c1)Nc1nccnc1S2` was 272 to 274 °C. On the same count and under the same terms, the value for `O=C(O)C=C1CCN(Cc2ccc3c(c2)Nc2nccnc2S3)CC1` was 214 to 216 °C. Still for that read-out and setting: the value for `Cc1nc2c(nc(C)n2Cc2ccc3c(c2)Nc2nccnc2S3)c(=O)[nH]1` was 206 to 211 °C; that for `CC(=O)NCC1CCN(Cc2ccc3c(c2)Nc2nccnc2S3)CC1` was 168 to 170 °C.

As for `OC/C=C/CN1c2ccccc2Nc2nccnc21`, the melting point was in the range of 197 to 199 °C. The same measure, in the same setting: under `c1cnc2c(n1)Nc1cc(CN3CCCCCCC3)ccc1S2` stands 133 to 135 °C; under `O=C1CC2(CCN(Cc3ccc4c(c3)Nc3nccnc3S4)CC2)CN1`, 211 to 212 °C.

The molecule `NS(=O)(=O)NC1CCN(Cc2ccc3c(c2)Nc2nccnc2S3)CC1` yielded a melting point of 196 to 199 °C. In turn, `O=c1ccn(Cc2ccc3c(c2)Nc2nccnc2S3)c(=O)[nH]1` registered a melting point of 269 to 271 °C. The same measure, in the same setting: under `c1cnc2c(c1)ncn2Cc1ccc2c(c1)Nc1nccnc1S2` stands 249 to 251 °C; under `N#Cc1ccc2c(c1)Nc1nccnc1S2`, 263 to 264 °C. Still for that read-out and setting: under `N#CC(CCC(=O)O)=C1CCN(Cc2ccc3c(c2)Nc2nccnc2S3)CC1` stands 114 to 116 °C; under `CCc1ccc(C(O)c2ccc3c(c2)Nc2nccnc2S3)cn1` (stereo not shown), 161 to 163 °C; under `O=C(O)C=C1CC2(CCN(Cc3ccc4c(c3)Nc3nccnc3S4)CC2)C1`, 238 to 241 °C.

With `O=C(O)C1C2CN(Cc3ccc4c(c3)Nc3nccnc3S4)CC21` (stereo not shown), the melting point was > 275 °C. Consider `CS(=O)(=O)NC1CCN(Cc2ccc3c(c2)Nc2nccnc2O3)CC1`, for which the melting point fell in the range of 241 to 243 °C. The molecule `CS(=O)(=O)NCCC1CCN(Cc2ccc3c(c2)Nc2nccnc2S3)CC1` registered a melting point of 168 to 170 °C. Same read-out and setting: under `CN/C(=C\[N+](=O)[O-])NCc1ccc2c(c1)Nc1nccnc1S2` stands > 265 °C (dec.). `CN1c2ccc(C#CC(=O)O)cc2Nc2nccnc21`: the melting point is > 275 °C. Still for that read-out and setting: the value for `CC(=O)Nc1ccc(-c2cn(Cc3ccc4c(c3)Nc3nccnc3S4)cn2)cc1` was 261 to 263 °C.

Turning to `CC(C(=O)O)=C1CCN(Cc2ccc3c(c2)Nc2nccnc2S3)CC1`, the melting point fell in the range of 125 to 127 °C. Same read-out and setting: the value for `O=C(O)Cc1cccc(C2CCN(Cc3ccc4c(c3)Nc3nccnc3S4)CC2)c1` was 130 to 132 °C.

As to `O=C(CN1CCC(C(=O)O)CC1)NCc1ccc2c(c1)Nc1nccnc1S2`, the melting point is 226 to 230 °C (dec.). The same measure, in the same setting: under `O=C(O)c1ccc(C(O)c2nccn2Cc2ccc3c(c2)Nc2nccnc2S3)cc1` (stereo not shown) stands 240 to 241 °C; under `CC/C(=C\c1ncn(Cc2ccc3c(c2)Nc2nccnc2S3)c1C)C(=O)O`, > 288 °C (dec.); under `OC(c1cncnc1)c1ccc2c(c1)Nc1nccnc1S2` (stereo not shown), 218 to 221 °C. The same measure, in the same setting: under `c1ccc(CNc2ccc(NCc3ccc4c(c3)Nc3nccnc3S4)cn2)cc1` stands 208 to 211 °C; under `Cl.c1cnc2c(n1)Nc1cc(CC3=NCCCN3)ccc1S2`, > 280 °C; under `OCc1nccn1Cc1ccc2c(c1)Nc1nccnc1S2`, 247 to 250 °C. Molecule `CC1(O)CCN(Cc2ccc3c(c2)Nc2nccnc2S3)CC1` gave a melting point of 176 to 180 °C. Same read-out and setting: under `c1cnc2c(n1)Nc1cc(CN3CCc4sccc4C3)ccc1S2` stands 182 to 184 °C; under `c1ccc2c(c1)nnn2Cc1ccc2c(c1)Nc1nccnc1S2`, 251 to 258 °C. Still for that read-out and setting: under `CC(CCC1C2CCCC1CN(Cc1ccc3c(c1)Nc1nccnc1S3)C2)C(=O)O` (stereo not shown) stands 104 to 108 °C. The same measure, in the same setting: under `NCc1ncnc2c1ncn2Cc1ccc2c(c1)Nc1nccnc1S2` (as salt: oxalate) stands 97 to 104 °C (dec.); under `O=C(O)C1CCC(CNCc2ccc3c(c2)Nc2nccnc2S3)CC1` (stereo not shown), 217 to 220 °C. In the case of `Cc1nc2ncncc2n1Cc1ccc2c(c1)Nc1nccnc1S2`, the melting point is > 275 °C. The molecule `CS(=O)(=O)NCCc1cn(Cc2ccc3c(c2)Nc2nccnc2S3)cn1` had a melting point of 173 to 176 °C.

For the molecule `O=S(=O)(CCC1CCN(Cc2ccc3c(c2)Nc2nccnc2S3)CC1)N1CCOCC1`, the melting point fell in the range of 193 to 194 °C. Same read-out and setting: the value for `OC(c1ccc2c(c1)Nc1nccnc1S2)c1ncccn1` (stereo not shown) was 105 to 107 °C.
